Test results as given in publication PMC5575254, “An allosteric ligand-binding site in the extracellular cap of K2P channels” (Nature Communications, 2017).

Assays:
TREK-1 = system: T1, TREK-1; test: Outside-out and inside-out patch recordings of TREK-1; format: cell-based, human; settings: +80 mV
T1 construct: expressed in transfected cells; host or cells: CHO cells, transient transfection
Description: All electrophysiological recordings were obtained using patch-clamp recordings in two different configurations: (1) whole cell for macroscopic current dose–response curves; and (2) outside-out and inside-out for macroscopic currents recordings.
All patch-clamp recordings were conducted 36–96 h after transfection with an Axopatch-200B amplifier (Molecular Devices) at room temperature (23–25 °C). The microelectrodes fashioned from 1.5 mm thin-walled borosilicate glass with filament were pulled from Flaming/Brown type micropipette puller (P-97; SUTTER INSTRUMENT) with the resistances of 3–7 MΩ (whole cell) or 7–15 MΩ (outside-out) when filled with a solution containing (in mM): 140 KCl, 2 MgCl2, 10 EGTA, 1 CaCl2, 10 HEPES (pH 7.3, adjusted with KOH). External solution contained (in mM): 150 NaCl, 5 KCl, 0.5 CaCl2, 1.2 MgCl2, 10 HEPES (pH 7.3, adjusted with NaOH). The current signals were filtered at 1 kHz and digitized at a 10 kHz sampling frequency by using DigiData 1440 A.
In the outside-out patch recordings and inside-out patch recordings, the inhibitor (10–30 μM TKDC) was applied via dish perfusion. The bath level was kept as low as possible to reduce noise. Currents were recorded at a pipette potential of + 80 mV. […]
mechanical force, lipids, or pH change)? A comprehensive survey would be nice, but even evaluating block +/- one activating stimulus would be a very useful piece of information to know for those interested in using this drug.
Response: We have tested the TKDC-induced inhibition of TREK-1 in addition to the mechanical force using outside-out patch. 10 μM TKDC was applied via dish perfusion. The bath level was kept as low as possible to reduce noise. Currents were recorded at a pipette potential of +80 mV. Mechanical stimulation (-7 mmHg) for patches was applied by suction for the outside-out configuration using a pressure monitor (PM 015D, World Precision Instruments) controlled by clampex 10.6 software. As […]
The main aim of this work is to reveal an allosteric ligand-binding site in the extracellular cap of K2P channels. […]

TREK-1 internalization = test: Confocal microscopic analysis of channel internalization (co-localization with Rab5a); format: cell-based, CHO-K1 cells; settings: 10 μM, 20 min, vs DMSO control
Description: In eight-well chamber (Thermo), CHO-K1 cells were co-transfected with PEGFP-N1-TREK1 and OFP-Rab5a. After 24 h, cells were treated with 10 μM TKDC for 20 min at room temperature and DMSO as control. At the end of incubation, cells were washed with PBS, fixed with 4% paraformaldehyde and washed with PBS. Images were taken at × 100 with scan zoom 1.74 using Leica SP8 and 3D reconstruction was done using Imaris software (Bitplane) and co-localization analysis was quantified using Imaris software. An automatic threshold of red and green channels was selected. The data represent images taken from 18 different areas (n = 18).

mice = test: Forced swimming test; format: in vivo, Male C57BL/6 mice; settings: chronic i.p. administration 10 days; TKDC 0.5, 1, 5 mg kg-1; fluoxetine 10 mg kg-1; vs vehicle
Description: Male C57BL/6 mice, aged 8 weeks (weighing 18–20 g) were used for acute and chronic drug administration and behavioral tests. The mice were housed four per cage under a 12-h light–dark cycle. Mice were raised under stable conditions with food and water ad libitum. All animal studies and experimental procedures were approved by the Animal Care Committees of the Shanghai Institute of Materia Medica, Chinese Academy of Sciences, and experiments were carried out in accordance with EU Directive 2010/63/EU on the protection of animals used for scientific purposes. […] The mice were removed to a sound-attenuating testing room 3–4 h before testing. The behavioral tests were carried out 30 min and 24 h after acute and chronic drugs administration, respectively.
The mice were performed under normal light. The apparatus was a transparent Plexiglas cylinder with 30 cm height × 10 cm diameter and the water temperature at 23–25 °C were set to prevent mice from touching the bottom with their limbs. Mice were allowed to swim for 8 min, and their activity was videotaped. There was an extra 15-min swimming in the previous day. The duration of immobility defined as floating or remaining motionless was assessed. To avoid extremely active at the beginning of swimming, the first 2 min of swimming was also excluded as the tail suspension test. […]

SMILES: CS(=O)(=O)N(CC(=O)N1CCc2ccccc2C1)c1ccc(Cl)cc1 [TKDC, N-(4-cholorphenyl)-N-(2-(3,4-dihydrosioquinolin-2(1H)-yl)-2-oxoethyl)methanesulfonamide]
- inhibition of TREK-1, outside-out recording (TREK-1; application to the extracellular face, 10 and 30 μM): consistently inhibited TREK-1
- inhibition of TREK-1, inside-out recording (TREK-1; application to the intracellular side, 10 and 30 μM): did not significantly inhibit TREK-1 activity
- effect on activation of TREK-1 by mechanical force (TREK-1; outside-out patch, 10 μM, -7 mmHg): suppressed the activation of TREK-1 by mechanical force
- TREK-1 internalization (co-localization with Rab5a) (TREK-1 internalization): did not significantly increase TREK-1 internalization
- immobility in the forced swimming test (mice): decrease in immobility
